{"source": "patent US12144896B2", "about": "“Drug delivery system” (INSERM (INSTITUT NATIONAL DE LA SANTÉ ET DE LA RECHERCHE …, priority 2018, dated 2024)", "key": {"[1]": {"test_system": "HT-29 cells", "assay": "MTS cell viability test on HT-29 cells", "format": "cell-based, Human", "details": "HT-29, 24 h incubation at 37° C., 0-200 μM", "method": "(§1) Human lung alveolar carcinoma A549 cells, provided by Prof. L. Migliore, University of Pisa, were grown in Ham's F12 medium supplemented with 10% Fetal Bovine Serum (FBS), 1 mM Gln, and antibiotics. Human colorectal adenocarcinoma HT-29 cells, provided by Prof. P. Petronini, University of Parma, were grown in DMEM High (glucose 4.5 g/1) supplemented with 10% FBS, 2 mM Gln and antibiotics. Cells were incubated at 37° C. at 5% CO2; after thawing, all cells were used for less than ten passages.\n(§2) 3.5×10^3 B6KPC3 and A549 cells and 7.5×10^3 HT-29 cells were seeded into 96-well plates. […] After 24 h, cell viability was evaluated through MTS Cell Proliferation Colorimetric Assay Kit (Novus Biologicals, Abingdon, UK). […] In preliminary experiments the time of exposure to MTS (1 h for HT-29 and 3 h for A549 cells) was determined according to the metabolism of each cell type. Absorbance was measured at 492 nm with a microplate reader (EnSpire® Multimode Plate Reader, Perkin Elmer, Boston, Mass., USA).\n(§3) Cell viability (CV) percentage was evaluated through the following formula: CV (%)=(Absorbance(treated wells))/(Absorbance(control wells))×100 with Absorbance (control wells) considered the absorbance of untreated cells incubated in medium without drugs. […]\n(§4) Oxaliplatin, DACHPt, and Blank nanoparticles are thus used as controls. Viability was then evaluated with the MTS assay (see Material and Methods). […]"}, "[2]": {"test_system": "B6KPC3 cells", "assay": "MTS cell viability test on B6KPC3 cells", "format": "cell-based", "details": "B6KPC3, 24 h incubation at 37° C., 0-200 μM", "method": "3.5×10^3 B6KPC3 and A549 cells and 7.5×10^3 HT-29 cells were seeded into 96-well plates. […] After 24 h, cell viability was evaluated through MTS Cell Proliferation Colorimetric Assay Kit (Novus Biologicals, Abingdon, UK). Briefly, medium was removed, and 100 μL of MTS solution diluted 1:10 in serum-free medium were added in each well. In preliminary experiments the time of exposure to MTS (1 h for HT-29 and 3 h for A549 cells) was determined according to the metabolism of each cell type. Absorbance was measured at 492 nm with a microplate reader (EnSpire® Multimode Plate Reader, Perkin Elmer, Boston, Mass., USA).\nCell viability (CV) percentage was evaluated through the following formula: CV (%)=(Absorbance(treated wells))/(Absorbance(control wells))×100 with Absorbance (control wells) considered the absorbance of untreated cells incubated in medium without drugs. G.3 Results for Viability Studies on HT-29, A549 and B6KPC3 Cells: MTS Test\nOxaliplatin, DACHPt, and Blank nanoparticles are thus used as controls. Viability was then evaluated with the MTS assay (see Material and Methods). Data were expressed as % of control (untreated cells). Data are means±SD of two experiments with 3 determinations each."}, "[3]": {"test_system": "A549 cells", "assay": "MTS cell viability test on A549 cells", "format": "cell-based, Human", "details": "A549, 24 h incubation at 37° C., 0-200 μM", "method": "as §1, §2, §3, §4"}, "[4]": {"test_system": "multicellular HT116 spheroids", "assay": "Multicellular tumor spheroid (MCTS) volume follow-up", "format": "cell-based", "excerpt": "Multi cellular tumor spheroids (MCTS) were formed according to a previous published method [Virgone-Carlotta A, Lemasson M, Mertani H C, et al. In-depth phenotypic characterization of multicellular tumor spheroids: Effects of 5-Fluorouracil. PLOS ONE. 2017; 12(11):e0188100. doi: 10.1371/journal.pone.0188100]. Briefly, MCTS were formed using HTC-116 cell line in Ultra Low Attachment (ULA) 96 wells Round-Bottom plate (Greiner bio-one) to avoid cell-substrate attachment. The cells were trypsinized and were counted using a Malassez grid in order to obtain 2,400 cells per milliliter. This concentration of cells (i.e., 480 cells per well in a volume of 200 μL) was chosen in order to obtain a single spheroid per well, with a spheroid diameter at the end of the experimentation not exceeding 500 μm. The plate was centrifuged for 5 minutes at 1,200 g at room temperature to initiate the formation of spheroids. The plate was placed in the incubator under agitation at 37° C. and 5% CO2 during the whole experiment. At the end of the first day after seeding, 100 μL of culture medium was added to ensure proper 3D growth. […] The treatment was renewed during 3 days. Results are shown on FIGS. 4 to 6.\nBlank NP were also used to assess nonspecific toxicity that could arise from the system. MCTS were monitored at day 0, 1, 2, 3, 4, and 7 day post treatment. Eight spheroids (n=8) were probed at each concentration (5, 25 and 50 μM). A ring of detaching cells appeared spontaneously after one day of treatment. The spheroids were transferred into new well plates to eliminate mechanically this uncohesive peripheral cell layer and to renew the drug and culture medium. Therefore, the reduction in volume monitored during treatment arose from a loss of viability as well as from a loss of cohesiveness.\nWe performed edge detection using a sobel threshold for each spheroid using the Image J software. The resulting binary images were fitted to an ellipse of major (LM) and minor (Lm) axes using the ImageJ “Analyse Particles” plugins. From this, a mean diameter was calculated, D=(LM+Lm)/2. The volume V was then determined assuming that the spheroids are spherical V=πD3/6. Results are shown on FIG. 7.\nThe volume of MCTS was evaluated from phase contrast microscopy images as a readout of cytotoxic effect. The data reported in FIGS. 4-6 represent normalized MCTS volume for different treatments with respect to the control volume (MCTS not treated). Three different drug concentrations were tested: 5, 25 and 50 μM."}, "[5]": {"details": "clinical studies, end of a 2-hr infusion; cited from earlier work"}, "[6]": {"assay": "Pharmacokinetics after IV bolus injection, two-compartment analysis of plasma Pt", "details": "mice, 35 μg Pt/mice", "quoted_text": "At specific time points, 15, 30 min, 1, 1.5, 3, 5, 8 and 12 h post dose, 200 μl of blood was taken and separated from plasma. Pt content was detected using ICP/MS.\nA first-order, two-compartment model with bolus administration, expressed in terms of CL and V was applied to fit the data, using 1/yhat^2 as weighting function.\nBased on the profile obtained (FIGS. 3A and 3B), the data were analyzed using a two-compartmental model."}}, "note": "Several values for one entry are separate records, joined by “and”; a condition that tells them apart may be missing. Equal entries are not always repeated."}
{"compound": "NC1CCCCC1N.[Pt+2]", "note": "(stereo not shown) [DACHPt, di-aqua(1,2-diaminocyclohexane)platinum(II)]", "values": [{"measurement": "IC50", "setting": "[1]", "value": 39, "unit": "µM"}]}
{"compound": "(R,R)-1,2-diaminocyclohexane(ethanedioato-O,O)platinum [Oxaliplatin]", "values": [{"measurement": "IC50", "setting": "[1]", "value": 74, "unit": "µM"}, {"measurement": "IC50", "setting": "[2]", "value": 23, "unit": "µM"}, {"measurement": "IC50", "setting": "[3]", "value": 11, "unit": "µM"}, {"measurement": "IC50", "setting": "[3]; listed as oxaliplatin reference solution", "value": 12, "unit": "µM"}, {"measurement": "size reduction (%) of spheroids compared to control spheroids at the same day", "setting": "[4]; 5 μM, Day 0", "value": "−1.21", "unit": "%"}, {"measurement": "size reduction (%) of spheroids compared to control spheroids at the same day", "setting": "[4]; 5 μM, Day 1", "value": 4.52, "unit": "%"}, {"measurement": "size reduction (%) of spheroids compared to control spheroids at the same day", "setting": "[4]; 5 μM, Day 2", "value": 15.86, "unit": "%"}, {"measurement": "size reduction (%) of spheroids compared to control spheroids at the same day", "setting": "[4]; 5 μM, Day 3", "value": 24.88, "unit": "%"}, {"measurement": "size reduction (%) of spheroids compared to control spheroids at the same day", "setting": "[4]; 5 μM, Day 4", "value": 28.73, "unit": "%"}, {"measurement": "size reduction (%) of spheroids compared to control spheroids at the same day", "setting": "[4]; 25 μM, Day 0", "value": 0.59, "unit": "%"}, {"measurement": "size reduction (%) of spheroids compared to control spheroids at the same day", "setting": "[4]; 25 μM, Day 1", "value": 16.06, "unit": "%"}, {"measurement": "size reduction (%) of spheroids compared to control spheroids at the same day", "setting": "[4]; 25 μM, Day 2", "value": 29.27, "unit": "%"}, {"measurement": "size reduction (%) of spheroids compared to control spheroids at the same day", "setting": "[4]; 25 μM, Day 3", "value": 40.23, "unit": "%"}, {"measurement": "size reduction (%) of spheroids compared to control spheroids at the same day", "setting": "[4]; 25 μM, Day 4", "value": 45.93, "unit": "%"}, {"measurement": "size reduction (%) of spheroids compared to control spheroids at the same day", "setting": "[4]; 25 μM, Day 7", "value": 52.04, "unit": "%"}, {"measurement": "size reduction (%) of spheroids compared to control spheroids at the same day", "setting": "[4]; 50 μM, Day 0", "value": 0.62, "unit": "%"}, {"measurement": "size reduction (%) of spheroids compared to control spheroids at the same day", "setting": "[4]; 50 μM, Day 1", "value": 16.78, "unit": "%"}, {"measurement": "size reduction (%) of spheroids compared to control spheroids at the same day", "setting": "[4]; 50 μM, Day 2", "value": 32.53, "unit": "%"}, {"measurement": "size reduction (%) of spheroids compared to control spheroids at the same day", "setting": "[4]; 50 μM, Day 3", "value": 44.17, "unit": "%"}, {"measurement": "size reduction (%) of spheroids compared to control spheroids at the same day", "setting": "[4]; 50 μM, Day 4", "value": 48.93, "unit": "%"}, {"measurement": "size reduction (%) of spheroids compared to control spheroids at the same day", "setting": "[4]; 50 μM, Day 7", "value": 71.67, "unit": "%"}, {"measurement": "appearance of treated spheroids on photographs", "setting": "[4]; 50 μM, FIG. 7", "value": "few cells are still present and formed aggregates"}, {"measurement": "administered platinum present in the systemic circulation", "setting": "[5]", "value": 15, "unit": "%"}, {"measurement": "AUMC", "setting": "[6]", "value": "65.1 ± 23.8", "unit": "hr*hr*mg/L"}, {"measurement": "K12 (rate constant central to peripheral compartment)", "setting": "[6]", "value": "4.14 ± 0.72", "unit": "h⁻¹"}, {"measurement": "K21 (rate constant peripheral to central compartment)", "setting": "[6]", "value": "0.398 ± 0.054", "unit": "h⁻¹"}, {"measurement": "Q", "setting": "[6]", "value": "0.060 ± 0.008", "unit": "L/h"}, {"measurement": "Vc", "setting": "[6]", "value": "0.014 ± 0.004", "unit": "L"}, {"measurement": "Vp", "setting": "[6]", "value": "0.15 ± 0.02", "unit": "L"}, {"measurement": "Vss", "setting": "[6]", "value": 0.165, "unit": "L"}, {"measurement": "K21 (rate constant peripheral to central compartment)", "setting": "[6]; listed as oxaliplatin", "value": 0.398, "unit": "h⁻¹"}, {"measurement": "K12 (rate constant central to peripheral compartment)", "setting": "[6]; listed as oxaliplatin solution", "value": 4.14, "unit": "h⁻¹"}, {"measurement": "Vc", "setting": "[6]; listed as oxaliplatin solution", "value": 0.014, "unit": "L"}, {"measurement": "Vp", "setting": "[6]; listed as oxaliplatin solution", "value": 0.150, "unit": "L"}, {"measurement": "AUC", "setting": "[6]; plasma", "value": 3760, "unit": "ng·h/mL"}, {"measurement": "Alpha_HL (distribution half-life)", "setting": "[6]; plasma", "value": 8.1, "unit": "min"}, {"measurement": "CL", "setting": "[6]; plasma clearance", "value": 0.010, "unit": "L/h"}, {"measurement": "Beta_HL (elimination half-life)", "setting": "[6]; plasma, listed as oxaliplatin solution", "value": "13.6 h and 13 h"}, {"measurement": "Cmax", "setting": "[6]; time 0 hr", "value": 2480, "unit": "ng/mL"}]}
